Values of other authors in patent US12396965B2, “Putrescine topical barrier formulation” (VIVIER CANADA INC., priority 2017, dated 2025).

How the values were obtained:
[1] = system: epidermis of eroded skin; conditions: animals and human, topical
[2] = molecular target: fibroblast tissue transglutaminase (Homo sapiens, UniProt P21980); conditions: in vitro and in vivo; topical; compared to controls
Sequence of fibroblast tissue transglutaminase (P21980 whole entry): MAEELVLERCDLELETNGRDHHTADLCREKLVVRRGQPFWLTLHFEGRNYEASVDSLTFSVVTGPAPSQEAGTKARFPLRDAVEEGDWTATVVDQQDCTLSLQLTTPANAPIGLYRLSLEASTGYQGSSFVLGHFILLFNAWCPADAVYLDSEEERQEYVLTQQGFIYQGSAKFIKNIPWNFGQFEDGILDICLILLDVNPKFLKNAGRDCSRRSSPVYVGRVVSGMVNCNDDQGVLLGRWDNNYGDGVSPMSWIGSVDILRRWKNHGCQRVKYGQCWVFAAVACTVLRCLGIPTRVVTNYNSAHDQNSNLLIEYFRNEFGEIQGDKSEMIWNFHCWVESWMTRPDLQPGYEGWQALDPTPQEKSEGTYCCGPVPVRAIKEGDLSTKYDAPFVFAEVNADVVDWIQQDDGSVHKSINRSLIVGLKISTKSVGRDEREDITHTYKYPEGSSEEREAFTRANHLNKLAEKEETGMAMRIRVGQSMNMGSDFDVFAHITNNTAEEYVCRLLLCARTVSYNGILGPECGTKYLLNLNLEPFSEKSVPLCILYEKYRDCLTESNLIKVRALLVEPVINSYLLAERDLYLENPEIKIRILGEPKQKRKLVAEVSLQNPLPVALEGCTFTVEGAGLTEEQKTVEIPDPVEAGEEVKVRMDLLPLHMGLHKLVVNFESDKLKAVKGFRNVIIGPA

## NCCCCN [Putrescine, 1,4-diaminobutane]
[1]
  barrier function of the epidermis and thickness of the stratum lucidum / inner strata of human epidermis: increasing its barrier function as well as the thickness of the stratum lucidum
[2]
  collagen cross-linking: reduce collagen cross-linking
